PMC11719397, “Monophthalates of betulinic acid and related pentacyclic triterpenes inhibit efficiently the SOS-mediated nucleotide exchange and impact PI3K/AKT signaling in oncogenic K-RAS4B proteins” (RSC Advances, 2025)
Converted amounts (≈) assume the structure as drawn.

How the values were obtained:
K-RAS4B wild-type [1] = biological target: K-RAS4B wild-type (Homo sapiens, UniProt P01116); assay: Nucleotide exchange assay (SOS1-mediated GDP/GTP exchange, GDP-Glo), K-RAS4B wild-type; assay type: biochemical; settings: K-RAS4B GDP/GTP exchange; eight data points, at least three determinations; (*) single determination
K-RAS4B G12V = K-RAS4B G12V (Homo sapiens, UniProt P01116, G12V); assay: Nucleotide exchange assay (SOS1-mediated GDP/GTP exchange, GDP-Glo), K-RAS4B G12V; assay type: biochemical; settings: eight data points, at least three determinations, (*) single determination
[2] = test system: AKT phosphorylation in SNU-1 cells (K-RAS4B^G12D); assay: HTRF AKT phosphorylation assay in SNU-1 cells; assay type: cell-based; settings: Homo sapiens, SNU1, read-out: SNU-1 pAKT inhibition IC50
Method: (§1) For selected betulinic acid derivatives quantitative ERK and AKT phosphorylation was measured in SNU-1 (K-RAS4B^G12D) and A375 cells (K-RAS4B^wt) to determine whether pentacyclic triterpenes act via the RAS-RAF-MEK-ERK or the RAS-PI3K-PDK1-AKT downstream cascade (Table 2). The betulinic acid derivatives tested, had no activity on the ERK pathway, but inhibited AKT phosphorylation with micromolar IC50 values in agreement with literature reports.[50,51] […] No activity was detected in A375 cells carrying a BRAF but no K-RAS mutation.
(§2) SNU-1 cells harbouring the K-RASG12D mutation (primary carcinoma of the stomach), were grown in RPMI medium with 10% FBS (fetal bovine serum) and 1% L-Gln. Cells were plated in white small volume cell culture 384 well microplates (Greiner BioOne GmbH) at a density of 50.000 cells per well/6 μL in RPMI medium with 1% L-glut (serum-free medium). The plated cells were placed in a high humidity incubator (37 °C, 5% CO2 and 90% humidity) to avoid evaporation of the small amount of medium for 3 hours before the compounds were added. With the Echo520 liquid handler the cells were treated with a 3-fold 8-point serial dilution of the compounds, with a top final concentration of 330 μM and a final DMSO concentration of 1%. After compound transfer, cells were incubated for 1 hour in the high humidity incubator before the cells were treated with 3 μL of 9 nM EGF diluted in serum-free medium (final EGF concentration in the well 3 nM) for 15 minutes. The lysis buffer from the Phospho-ERK 1/2 (Thr202/Tyr204)- and the Total ERK1/2 LANCE Ultra TR-FRET Cellular Detection Kit (PerkinElmer Inc.) was prepared to a 4-fold concentration in water. Then 3 μL of the lysis buffer were added to each well and the plates were shaken at 300 rpm for 30 minutes at room temperature. During this incubation the antibody detection mix was prepared according to the manufacturer's protocol. In the final step 3 μL of antibody detection mix were added to each well. The plates were sealed with an aluminium sticky foil and incubated over night at room temperature for 20 hours. The detection was performed with the EnVision2104 Multilabel Reader.

[3] = test system: ERK phosphorylation in SNU-1 cells (K-RAS4B^G12D); assay: HTRF ERK phosphorylation assay in SNU-1 cells; assay type: cell-based; settings: Homo sapiens, SNU1, read-out: SNU-1 pERK inhibition IC50
Method: as §1, §2

[4] = test system: ERK phosphorylation in A375 cells (K-RAS4B^wt); assay: HTRF ERK phosphorylation assay in A375 cells; assay type: cell-based; settings: Homo sapiens, A-375; A375 cells (K-RAS4B^wt, BRAF mutation); two determinations; read-out: A375 pERK inhibition IC50
Method: as §1, §2

[5] = test system: AKT phosphorylation in A375 cells (K-RAS4B^wt); assay: HTRF AKT phosphorylation assay in A375 cells; assay type: cell-based; settings: Homo sapiens, A-375; A375 cells (K-RAS4B^wt, BRAF mutation); two determinations; read-out: A375 pAKT inhibition IC50
Method: as §1, §2

K-RAS4B^G12D [6] = biological target: T1, K-RAS4B^G12D (Homo sapiens, UniProt P01116, G12D); assay: biochemical; settings: for IC50: K-RAS4B GDP/GTP exchange, eight data points, at least three determinations
Target sequence in this assay (P01116 1-188 isoform P01116-2 G12D): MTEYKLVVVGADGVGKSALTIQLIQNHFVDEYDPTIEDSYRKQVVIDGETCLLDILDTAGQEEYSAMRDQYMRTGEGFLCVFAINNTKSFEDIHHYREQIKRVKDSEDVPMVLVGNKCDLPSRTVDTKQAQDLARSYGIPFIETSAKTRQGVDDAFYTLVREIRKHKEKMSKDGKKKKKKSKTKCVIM

K-RAS4B wild-type [7] = assay: Nucleotide exchange assay (SOS1-mediated GDP/GTP exchange, GDP-Glo), K-RAS4B wild-type; assay type: biochemical; settings: GDP/GTP exchange IC50 of wild-type versus G12D/G12V mutants
[8] = biological target: (GTP)K-RAS4B^wt:SOS1 complex (Homo sapiens, UniProt P01116+Q07889); assay: HTRF K-RAS^wt:SOS protein-protein interaction assay
Method: The interaction of (GTP)K-RAS4B^wt and SOS was measured with a HTRF assay using an SOS-specific antibody labeled with terbium cryptate as HTRF (homogeneous time-resolved fluorescence) donor and a K-RAS4B^wt specific antibody labeled with an HTRF acceptor (XL665).[52]
To test the compounds effect on the interaction of K-RAS and SOS1 proteins a commercial assay from Revvity (product code 64[sequence]) was used. The K-RAS WT/SOS1 PPI assay includes tagged human recombinant partners (K-RAS WT and SOS1) and labelled anti-tag reagents for HTRF detection. Without an inhibitor, K-RAS WT loaded with GTP binds to SOS1, and the binding of each detection reagent to its tagged target generates an HTRF signal. In the presence of K-RAS WT/SOS1 inhibitors or GTP competitors, the HTRF signal decreases.
After an incubation step for 10 min at room temperature 3 μL Tag1-KRAS protein was added followed by 7.5 μL detection mix containing anti-Tag2 antibody labeled with Terbium cryptate and anti-Tag1 antibody labeled with XL665. […] IC50 values were determined from the sigmoidal dose response curves with the Scigilian Analyze software (Scigilian, Monteral, Canada).

K-RAS4B^G12D [9] = biological target: T1, K-RAS4B^G12D; assay: cell-based; set-up: a fusion protein of LgBiT and full-length RAS; a fusion protein of SmBiT(q) and full-length RAS in cells; expressed in transfected cells; host or cells: HEK239T (so in the source); settings: live cells; displacement of BI2852 from the K-Ras4B SI/II binding-site; read-out: K-RAS4B^G12D NanoBRET TE KD
Description: (§3) To obtain further information on the mode of action, selected GDP/GTP exchange inhibitors were studied in additional assays (Table 3). A target engagement assay, which is based on bioluminescence resonance energy transfer (BRET), was used to measure target engagement at protein complexes in live cells (Fig. 5a). The BRET effect results from an energy transfer between the target luciferase fusion protein and a cell-permeable fluorescent tracer in intact cells.
(§4) Fig. 5 Schematic illustrations of the RAS cellular target engagement and RAS:SOS protein–protein interaction assay. (a) NanoBRET target engagement (TE) assay: when the fusion proteins LgBiT-RAS and SmBiT(q)-RAS interact in live-cells, they form an active luciferase as a BRET donor. The BRET receptor is a fluorescent NanoBRET® tracer that binds specifically to K-RAS. K-RAS binders displace the tracer and reduce the BRET signal in a dose-dependent manner.
(§5) The NanoBRET® TE Intracellular RAS Assay uses NanoBiT® Technology, a structural complementation system comprised of a large luciferase subunit (LgBiT) and a small complementary peptide (SmBiT(q)). Specifically, a fusion protein of LgBiT and full-length RAS is co-expressed with a fusion protein of SmBiT(q) and full-length RAS in cells. When the RAS proteins interact and form multimers, the LgBiT and SmBiT(q) subunits come together to form an active luciferase enzyme that serves as the BRET donor. The energy acceptor is a cell-permeable fluorescent NanoBRET® tracer that binds specifically to RAS. […] After mixing the plate for 1 min and incubation at room temperature for 15 min 1 μL of NanoBRET TE RAS Tracer 01 (final concentration 1 μM) was added followed by another mixing step. After 2 h incubation (37 °C, 5% CO2) and 15 min at room temperature 5 μL of NanoBRET™ Nano-Glo® substrate was added followed by a mixing step.
Target sequence in this assay (P01116 1-188 isoform P01116-2 G12D): as above
Target sequence in this assay (P01116 1-188 isoform P01116-2 G12D): as above

K-RAS4B^wt = biological target: T2, K-RAS4B^wt (Homo sapiens, UniProt P01116); assay: NanoBRET target engagement assay, K-RAS4B^wt (displacement of BI2852 tracer from SI/SII site); assay type: cell-based; settings: live cells; displacement of BI2852 from the K-Ras4B SI/II binding-site; read-out: K-RAS4B^wt NanoBRET TE KD
T2 construct: a fusion protein of LgBiT and full-length RAS; a fusion protein of SmBiT(q) and full-length RAS in cells; expressed in transfected cells; host or cells: HEK239T (so in the source)
Description: as §3, §4, §5

K-RAS4B G12V, sequence (P01116 1-188 isoform P01116-2 G12V): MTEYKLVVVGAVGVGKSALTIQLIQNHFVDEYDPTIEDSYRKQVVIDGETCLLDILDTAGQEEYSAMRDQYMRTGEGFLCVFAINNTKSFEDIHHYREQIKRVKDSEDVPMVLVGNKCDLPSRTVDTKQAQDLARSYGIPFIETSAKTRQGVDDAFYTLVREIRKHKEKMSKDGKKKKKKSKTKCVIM
(GTP)K-RAS4B^wt:SOS1 complex, sequence (P01116 1-188 isoform P01116-2): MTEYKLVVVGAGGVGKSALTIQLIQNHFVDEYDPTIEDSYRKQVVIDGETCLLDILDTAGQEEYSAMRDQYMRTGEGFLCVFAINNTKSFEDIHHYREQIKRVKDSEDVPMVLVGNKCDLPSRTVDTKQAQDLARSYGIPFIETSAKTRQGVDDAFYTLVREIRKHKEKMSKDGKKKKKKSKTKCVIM
(GTP)K-RAS4B^wt:SOS1 complex, sequence (Q07889 564-1049 limits assumed): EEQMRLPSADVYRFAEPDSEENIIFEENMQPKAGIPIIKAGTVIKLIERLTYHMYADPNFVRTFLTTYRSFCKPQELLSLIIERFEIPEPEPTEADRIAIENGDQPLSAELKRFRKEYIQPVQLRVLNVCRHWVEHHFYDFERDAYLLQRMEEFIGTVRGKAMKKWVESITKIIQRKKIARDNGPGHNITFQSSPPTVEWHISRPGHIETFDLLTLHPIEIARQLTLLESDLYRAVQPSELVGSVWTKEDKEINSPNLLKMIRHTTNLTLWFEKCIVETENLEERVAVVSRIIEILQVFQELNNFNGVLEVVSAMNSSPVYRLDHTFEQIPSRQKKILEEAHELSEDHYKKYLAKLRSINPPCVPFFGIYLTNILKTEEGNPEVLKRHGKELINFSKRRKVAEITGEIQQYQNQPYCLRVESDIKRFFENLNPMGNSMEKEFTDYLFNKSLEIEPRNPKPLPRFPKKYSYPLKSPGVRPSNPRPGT
K-RAS4B wild-type (Homo sapiens, UniProt P01116), sequence (P01116 1-188 isoform P01116-2): as the sequence (P01116 1-188 isoform P01116-2) above
T2 sequence (P01116 1-188 isoform P01116-2): as above
T2 sequence (P01116 1-188 isoform P01116-2): as above

C=C(C)[C@@H]1CC[C@]2(C(=O)O)CC[C@]3(C)[C@H](CC[C@@H]4[C@@]5(C)CC[C@H](OC(=O)c6cc(OC)c(OC)cc6C(=O)O)C(C)(C)[C@@H]5CC[C@]43C)[C@@H]12 [Compound 26]
IC50 (K-RAS4B wild-type [1]): > 100 µM | IC50 (K-RAS4B G12V): 26.4 ± 3.9 µM | IC50 [2]: 83.7 µM | IC50 [3]: > 300 µM | IC50 [4]: > 1000 µM | IC50 [5]: > 1000 µM | IC50 (K-RAS4B^G12D [6]): 36.1 ± 14.7 µM | inhibition of GDP/GTP exchange (in words) (K-RAS4B^G12D [6]; K-RAS4B form mostly not given, inactive = IC50 > 100 μM (Fig. 3 legend)): only moderate activity | solubility (Solubility): 158 µM (≈ 105 µg/mL)

C=C(C)[C@@H]1CC[C@]2(C(=O)O)CC[C@]3(C)[C@H](CC[C@@H]4[C@@]5(C)CC[C@H](OC(=O)c6cc(F)c(F)cc6C(=O)O)C(C)(C)[C@@H]5CC[C@]43C)[C@@H]12 [Compound 25]
selectivity factor, mutant versus K-RAS4B^wt (K-RAS4B wild-type [7]): 4–6 | IC50 (K-RAS4B wild-type [1]): 39.1 ± 5.4 µM | IC50 (K-RAS4B G12V): 9.79 ± 3.41 µM | IC50 [2]: 18.1 µM | IC50 [3]: > 300 µM | IC50 [4]: > 1000 µM | IC50 [5]: > 1000 µM | IC50 (K-RAS4B^G12D [6]): 5 ± 0.91 µM | solubility (Solubility): 240 µM (≈ 154 µg/mL)

C=C(C)[C@@H]1CC[C@]2(COC(=O)CCC(=O)O)CC[C@]3(C)[C@H](CC[C@@H]4[C@@]5(C)CC[C@H](OC(=O)c6cc(F)c(F)cc6C(=O)O)C(C)(C)[C@@H]5CC[C@]43C)[C@@H]12 [Compound 34]
IC50 (K-RAS4B wild-type [1]): 1.18 ± 0.02 µM | IC50 (K-RAS4B G12V): 2.85 ± 0.14 µM | Kd [8]: > 100 µM | Kd (K-RAS4B^G12D [9]): > 100 µM | IC50 (K-RAS4B^G12D [6]): 0.66 ± 0.13 µM | solubility (Solubility): 410 µM (≈ 298 µg/mL)

C=C(C)[C@@H]1CC[C@]2(C(=O)O)CC[C@]3(C)[C@H](CC[C@@H]4[C@@]5(C)CC[C@H](OC(=O)c6sccc6C(=O)O)C(C)(C)[C@@H]5CC[C@]43C)[C@@H]12 [Compound 18]
IC50 (K-RAS4B wild-type [1]): 1.27 ± 0.69 µM | Kd (K-RAS4B^wt): 21.8 µM | Kd [8]: > 50 µM | Kd (K-RAS4B^G12D [9]): 20.1 µM | IC50 (K-RAS4B^G12D [6]): 1.83 ± 1.45 µM | solubility (Solubility): 255 µM (≈ 156 µg/mL)

C=C(C)[C@@H]1CC[C@]2(COC(=O)/C=C\C(=O)O)CC[C@]3(C)[C@H](CC[C@@H]4[C@@]5(C)CC[C@H](O)C(C)(C)[C@@H]5CC[C@]43C)[C@@H]12 [Compound 30]
selectivity factor, mutant versus K-RAS4B^wt (K-RAS4B wild-type [7]): 15–20 | IC50 (K-RAS4B wild-type [1]): 69.2 ± 6.8 µM | IC50 (K-RAS4B G12V): 3.19 ± 0.19 µM | IC50 (K-RAS4B^G12D [6]): 6.8 ± 2.32 µM

C=C(C)[C@@H]1CC[C@]2(COC(=O)CCC(=O)O)CC[C@]3(C)[C@H](CC[C@@H]4[C@@]5(C)CC[C@H](OC(=O)c6c(F)ccc(F)c6C(=O)O)C(C)(C)[C@@H]5CC[C@]43C)[C@@H]12 [Compound 33]
IC50 (K-RAS4B wild-type [1]): 2.09 ± 0.59 µM | IC50 (K-RAS4B G12V): 2.13 ± 0.87 µM | Kd [8]: 37.4 µM | Kd (K-RAS4B^G12D [9]): 26.4 µM | IC50 (K-RAS4B^G12D [6]): 1.45 ± 0.93 µM | solubility (Solubility): 416 µM (≈ 302 µg/mL)
